Data: patent publication US6340654B1, “Freshness-retaining agent and method for agricultural/horticultural products” (priority 1999, dated 2002)

System: fresh pieces of apple (variety: Mutsu)
Assay: Ethylene concentration lowering effect for apple (ethylene in hermetically closed jar, tubular gas detector)
Settings: 23° C.
[1] = Table 1, 20 g apple pieces in closed 150-mL jar, 3 g agent
[2] = Table 2, vs. mixing ratio, 3 g agent per 20 g apple
[3] = Table 9, single substances 3 g, mixtures 1.5 g + 1.5 g, 20 g apple
[4] = Table 10, vs. mixing ratio, 3 g agent per 20 g apple

Method: Mouths of those jars were then hermetically closed with “[sequence]” (trademark; product of American National Can Company). Those jars were left over at 23° C., and on DAY 1, DAY 3 and DAY 6, the concentrations of ethylene in the respective jars were measured by a tubular gas detector (manufactured by Gastec, Inc.). The concentration of ethylene in a jar with “KIMWIPE” alone hermetically placed therein was also measured as a control.
Mouths of those jars were then hermetically closed with “[sequence]”. Those jars were left over at 23° C., and on DAY 1, DAY 3 and DAY 6, the concentrations of ethylene in the respective jars were measured by the tubular gas detector (manufactured by Gastec, Inc.). The concentration of ethylene in a jar with “KIMWIPE” alone hermetically placed therein was also measured as a control.
In 150-mL jars with 20 g per jar of fresh pieces of apple (variety: Mutsu) placed therein, portions (0.5 to 3 g) of a freshness-retaining agent [cinnamic acid:sodium hydrogen-carbonate=1:2 (by weight)] according to the present invention—all of which were individually wrapped with “KIMWIPE” (trademark for laboratory paper produced by Jujo-Kimberly Co., Ltd.)—were placed, respectively. Mouths of those jars were then hermetically closed with “[sequence]”. Those jars were left over at 23° C., and on DAY 1 and DAY 3, the concentrations of ethylene in the respective jars were measured by the tubular gas detector (manufactured by Gastec, Inc.). The concentration of ethylene in a jar with “KIMWIPE” alone hermetically placed therein was also measured as a control.
In 150-mL jars with 20 g per jar of fresh pieces of apple (variety: Mutsu) placed therein, three freshness-retaining agents according to the present invention [1:3 (by molar ratio) mixtures of cinnamic acid and hydrogencarbonates]—all of which were individually wrapped with “KIMWIPE” (trademark for laboratory paper produced by Jujo-Kimberly Co., Ltd.)—were placed, respectively. Mouths of those jars were then hermetically closed with “[sequence]”. Those jars were left over at 23° C., and on DAY 1 and DAY 3, the concentrations of ethylene in the respective jars were measured by the tubular gas detector (manufactured by Gastec, Inc.). The concentration of ethylene in a jar with “KIMWIPE” alone hermetically placed therein was also measured as a control.
Mouths of those jars were then hermetically closed with “[sequence]”.

Compound | Concentration of ethylene DAY 1 [1] [ppm] | Concentration of ethylene DAY 2 (Table 1, DAY 2, 20 g apple pieces in closed 150-mL jar, 3 g agent) [ppm] | Concentration of ethylene DAY 6 [1] [ppm] | Concentration of ethylene DAY 1 [2] [ppm] | Concentration of ethylene DAY 3 [2] [ppm] | Concentration of ethylene DAY 6 [2] [ppm] | Concentration of ethylene DAY 1 [3] [ppm] | Concentration of ethylene DAY 3 [3] [ppm] | Concentration of ethylene DAY 1 [4] [ppm] | Concentration of ethylene DAY 3 [4] [ppm] | Concentration of ethylene DAY 6 [4] [ppm]
O=C(O)C=Cc1ccccc1 [Cinnamic acid, cinnamic acid] | 100 | 100 | 100 | 38 | 50 | 50 |  |  |  |  | 
O=C([O-])O.[Na+] [Sodium hydrogencarbonate, sodium hydrogencarbonate] |  |  |  | 50 | 75 | 125 | 275 | 150 | 275 | 150 | 150
O=C([O-])CC(O)(CC(=O)[O-])C(=O)O.[Na+].[Na+] [Disodium citrate, disodium citrate] |  |  |  |  |  |  | 250 | 150 |  |  | 
O=C(O)CC(O)(CC(=O)O)C(=O)O [Citric acid, citric acid] |  |  |  |  |  |  | 275 | 125 |  |  | 
O=C([O-])CC(O)(CC(=O)O)C(=O)O.[Na+] [Monosodium citrate, monosodium citrate] |  |  |  |  |  |  | 250 | 125 |  |  | 
